Consider five molecules from patent US11780893B2, “Kv1.3 blockers” (Zealand Pharma A/S, priority 2019, dated 2023).

Assay [1] addresses T1, human Kv1.3 voltage-gated K+ channel (Homo sapiens, UniProt P22001).
T1 construct: host or cells: CHO-DUKX
Put plainly: cell-based. Particulars: inhibition of thallium flux, CHO-DUKX cells with human Kv1.3; read-out: IC50.

The next assay has as its target Rat whole blood (Rattus norvegicus, UniProt P15384).
Where [2] appears, read: inhibition of IL-17A release, thapsigargin, 24 Hr, at least 2 replicates.

Read-outs that look alike come from different tables or passages of the source. Bridge positions count the residues as written; N and C are the ends. Square brackets hold non-standard residues; d marks the D form. Peptide text beside a SMILES is read from it. Aad = N[C@@H](CCCC(=O)O)C(=O)O; Nle = CCCC[C@H](N)C(=O)O A value given as a limit tells only on which side of the number the result lay.

T1 sequence (P22001 whole entry): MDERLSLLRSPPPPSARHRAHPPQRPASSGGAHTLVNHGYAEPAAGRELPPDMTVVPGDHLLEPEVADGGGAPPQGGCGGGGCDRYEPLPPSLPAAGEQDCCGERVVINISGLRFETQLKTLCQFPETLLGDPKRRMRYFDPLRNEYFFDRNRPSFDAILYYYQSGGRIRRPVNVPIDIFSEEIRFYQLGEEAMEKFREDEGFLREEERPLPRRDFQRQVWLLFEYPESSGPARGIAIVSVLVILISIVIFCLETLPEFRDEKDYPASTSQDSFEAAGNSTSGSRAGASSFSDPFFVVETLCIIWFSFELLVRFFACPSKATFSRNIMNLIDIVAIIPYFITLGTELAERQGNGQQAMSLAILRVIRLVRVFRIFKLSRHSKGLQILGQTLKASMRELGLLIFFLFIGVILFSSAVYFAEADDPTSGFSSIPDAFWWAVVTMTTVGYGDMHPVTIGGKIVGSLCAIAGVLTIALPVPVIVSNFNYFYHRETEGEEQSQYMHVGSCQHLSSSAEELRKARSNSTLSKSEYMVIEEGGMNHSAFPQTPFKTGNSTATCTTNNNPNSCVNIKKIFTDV
Rat whole blood, sequence (P15384 whole entry): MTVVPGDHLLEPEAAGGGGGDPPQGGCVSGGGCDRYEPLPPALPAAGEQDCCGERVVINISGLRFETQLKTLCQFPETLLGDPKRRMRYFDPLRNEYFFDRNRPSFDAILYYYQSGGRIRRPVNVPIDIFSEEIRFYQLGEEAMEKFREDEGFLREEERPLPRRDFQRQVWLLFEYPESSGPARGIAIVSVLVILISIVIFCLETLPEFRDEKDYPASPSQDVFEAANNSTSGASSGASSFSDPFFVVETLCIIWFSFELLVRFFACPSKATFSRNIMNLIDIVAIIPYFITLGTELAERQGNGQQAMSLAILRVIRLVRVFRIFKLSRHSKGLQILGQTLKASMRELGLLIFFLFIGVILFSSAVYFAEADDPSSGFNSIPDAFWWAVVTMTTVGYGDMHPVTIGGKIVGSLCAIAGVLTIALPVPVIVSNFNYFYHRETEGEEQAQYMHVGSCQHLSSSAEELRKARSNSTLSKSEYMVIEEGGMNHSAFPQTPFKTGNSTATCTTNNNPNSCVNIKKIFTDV

By IC50 is commonly meant the point on the concentration scale where inhibition reaches its midpoint. `CC[C@H](C)[C@@H]1NC(=O)[C@H](C)NC(=O)[C@H](CCCCN)NC(=O)[C@H](CC(C)C)NC(=O)[C@@H]2CSSC[C@@H](C(=O)N[C@@H](Cc3ccc(O)cc3)C(=O)N3CCC[C@H]3C(=O)N[C@@H](CCCNC(=N)N)C(N)=O)NC(=O)[C@H](CCCCN)NC(=O)[C@@H]3CSSC[C@H](NC(=O)[C@H](CCC(=O)O)NC(=O)[C@H](C(C)C)NC(=O)[C@H](CO)NC(=O)[C@H](C)NC(=O)[C@H](CO)NC(=O)[C@@H](NC(=O)[C@H](CCCNC(=N)N)NC(=O)[C@H](CCSC)NC(=O)[C@H](CC(=O)O)NC(=O)[C@H](CCSC)NC(=O)[C@@H](N)CC(N)=O)CSSC[C@H](NC(=O)[C@H](CCCCN)NC(=O)CNC(=O)[C@H](Cc4ccccc4)NC(=O)[C@H]([C@@H](C)CC)NC(=O)[C@H](CO)NC(=O)[C@H](Cc4c[nH]cn4)NC1=O)C(=O)N[C@@H](CCSC)C(=O)N[C@@H](CC(N)=O)C(=O)N[C@@H](CCCCN)C(=O)N[C@@H](CCCCN)C(=O)N3)C(=O)N[C@@H](CCCCN)C(=O)N[C@@H](CCC(N)=O)C(=O)N[C@@H](CCCCN)C(=O)N2` [Compound 33] (H-NMDMRCSASVECKQKCLKAIHSIFGKCMNKKCKCYPR-NH2; disulfide 6-27, 12-32, 16-34): the IC50 in assay [1] was 0.14 nM; on Rat whole blood, ≤ 1 nM; on Rat whole blood (setting [2]), 0.7 nM.

For the molecule `CCCC[C@H](NC(=O)[C@@H]1CCCN1)C(=O)N[C@@H](CC(=O)O)C(=O)N[C@@H](CCCC)C(=O)N[C@@H](CCCNC(=N)N)C(=O)N[C@H]1CSSC[C@@H]2NC(=O)[C@H](CCCCN)NC(=O)CNC(=O)[C@H](Cc3ccccc3)NC(=O)[C@H]([C@@H](C)CC)NC(=O)[C@@H]3CSSC[C@@H](C(=O)O)NC(=O)[C@@H]4CCCN4C(=O)[C@H](Cc4ccc(O)cc4)NC(=O)[C@@H]4CSSC[C@H](NC(=O)[C@H](CCCCN)NC(=O)[C@H](CCC(N)=O)NC(=O)[C@H](CCCCN)NC(=O)[C@H](CSSC[C@H](NC(=O)[C@H](CCCCN)NC(=O)[C@H](CCCCN)NC(=O)[C@H](CC(N)=O)NC(=O)[C@H](CCCC)NC2=O)C(=O)N[C@@H](CCCCN)C(=O)N4)NC(=O)[C@H](CCC(=O)O)NC(=O)[C@H](C(C)C)NC(=O)[C@H](CO)NC(=O)[C@H](C)NC(=O)[C@H](CO)NC1=O)C(=O)N[C@@H](CC(C)C)C(=O)N[C@@H](CCCCN)C(=O)N[C@@H](C)C(=O)N[C@@H]([C@@H](C)CC)C(=O)NCC(=O)N3` [Compound 88] (H-P[Nle]D[Nle]RCSASVECKQKCLKAIGCIFGKC[Nle]NKKCKCYPC-OH; disulfide 6-27, 12-32, 16-34, 22-37), the IC50 in assay [1] is 0.27 nM; against Rat whole blood (setting [2]) it was 1.1 nM.

With `CCCC[C@H](NC(=O)[C@@H]1CCCN1)C(=O)N[C@@H](CC(=O)O)C(=O)N[C@@H](CCCC)C(=O)N[C@@H](CCCNC(=N)N)C(=O)N[C@H]1CSSC[C@@H]2NC(=O)[C@H](CCCCN)NC(=O)CNC(=O)[C@H](Cc3ccccc3)NC(=O)[C@H]([C@@H](C)CC)NC(=O)[C@H](CO)NC(=O)CNC(=O)[C@H]([C@@H](C)CC)NC(=O)[C@H](C)NC(=O)[C@H](CCCC(N)=O)NC(=O)[C@H](CC(C)C)NC(=O)[C@@H]3CSSC[C@@H](C(=O)N[C@@H](Cc4ccc(O)cc4)C(=O)N4CCC[C@H]4C(=O)N[C@@H](CCCNC(=N)N)C(N)=O)NC(=O)[C@H](CCCCN)NC(=O)[C@H](CSSC[C@H](NC(=O)[C@H](CCC(=O)O)NC(=O)[C@H](C(C)C)NC(=O)[C@H](CO)NC(=O)[C@H](C)NC(=O)[C@H](CO)NC1=O)C(=O)N[C@@H](CCCCN)C(=O)N[C@@H](CCC(=O)O)C(=O)N[C@@H](CCCCN)C(=O)N3)NC(=O)[C@H](CCCCN)NC(=O)[C@H](CCCCN)NC(=O)[C@H](CC(N)=O)NC(=O)[C@H](CCCC)NC2=O` [Compound 85] (H-P[Nle]D[Nle]RCSASVECKEKCL[Aad](NH2)AIGSIFGKC[Nle]NKKCKCYPR-NH2; disulfide 6-27, 12-32, 16-34), the 50% inhibitory concentration (IC50) in assay [1] came out at 0.15 nM; on Rat whole blood (setting [2]), 1.4 nM.

As to `CCCC[C@H](NC(=O)[C@H](CC(=O)O)NC(=O)[C@H](CCCC)NC(=O)[C@@H](N)CO)C(=O)N[C@@H](CCCNC(=N)N)C(=O)N[C@H]1CSSC[C@@H]2NC(=O)[C@H](CCCCN)NC(=O)CNC(=O)[C@H](Cc3ccccc3)NC(=O)[C@H]([C@@H](C)CC)NC(=O)[C@H](CO)NC(=O)CNC(=O)[C@H]([C@@H](C)CC)NC(=O)[C@H](C)NC(=O)[C@H](CCCCN)NC(=O)[C@H](CC(C)C)NC(=O)[C@@H]3CSSC[C@@H](C(=O)N[C@@H](Cc4ccc(O)cc4)C(=O)N4CCC[C@H]4C(=O)N[C@@H](CCCNC(=N)N)C(N)=O)NC(=O)[C@H](CCCCN)NC(=O)[C@H](CSSC[C@H](NC(=O)[C@H](CCC(=O)O)NC(=O)[C@H](C(C)C)NC(=O)[C@H](CO)NC(=O)[C@H](C)NC(=O)[C@H](CO)NC1=O)C(=O)N[C@@H](CCCCN)C(=O)N[C@@H](CCCC(=O)O)C(=O)N[C@@H](CCCCN)C(=O)N3)NC(=O)[C@H](CCCCN)NC(=O)[C@H](CCCCN)NC(=O)[C@H](CC(N)=O)NC(=O)[C@H](CCSC)NC2=O` [Compound 73] (H-S[Nle]D[Nle]RCSASVECK[Aad]KCLKAIGSIFGKCMNKKCKCYPR-NH2; disulfide 6-27, 12-32, 16-34), the IC50 in assay [1] was 0.11 nM; against Rat whole blood, ≤ 1 nM; against Rat whole blood (setting [2]), 0.52 nM.

As to `CCCC[C@@H]1NC(=O)[C@@H]2CSSC[C@H](NC(=O)[C@H](CCCNC(=N)N)NC(=O)[C@H](CCC(=O)O)NC(=O)[C@H](CC(=O)O)NC(=O)[C@@H](NC(=O)[C@@H]3CCCN3)[C@@H](C)CC)C(=O)N[C@@H](CO)C(=O)N[C@@H](C)C(=O)N[C@@H](CO)C(=O)N[C@@H](C(C)C)C(=O)N[C@@H](CCC(=O)O)C(=O)N[C@H]3CSSC[C@H](NC(=O)[C@H](CCCCN)NC(=O)[C@H](CCCCN)NC(=O)[C@H](CC(N)=O)NC1=O)C(=O)N[C@@H](CCCCN)C(=O)N[C@H](C(=O)N[C@@H](Cc1ccc(O)cc1)C(=O)N1CCC[C@H]1C(=O)N[C@@H](CCCNC(=N)N)C(=O)O)CSSC[C@H](NC(=O)[C@H](CCCCN)NC(=O)[C@H](CCC(N)=O)NC(=O)[C@H](CCCCN)NC3=O)C(=O)N[C@@H](CC(C)C)C(=O)N[C@@H](C)C(=O)N[C@@H](C)C(=O)N[C@@H]([C@@H](C)CC)C(=O)NCC(=O)N[C@@H](CO)C(=O)N[C@@H]([C@@H](C)CC)C(=O)N[C@@H](Cc1ccccc1)C(=O)NCC(=O)N[C@@H](CCCCN)C(=O)N2` [Compound 100] (H-PIDERCSASVECKQKCLAAIGSIFGKC[Nle]NKKCKCYPR-OH; disulfide 6-27, 12-32, 16-34), the half-inhibitory concentration (IC50) in assay [1] was 0.85 nM; against Rat whole blood, ≤ 1 nM; on Rat whole blood (setting [2]), 0.87 nM.
